Publication PMC9965906, “Discovery and Development Strategies for SARS-CoV-2 NSP3 Macrodomain Inhibitors” (Pathogens, 2023)
Values joined by “and” are separate entries in the source; they are usually repeats but may differ in a detail not shown here. Identical values can stand only once. Counter-ions that a name gives are not always drawn. Like-named read-outs stand apart in the source and are kept apart here.

Biological target: SARS-CoV-2 NSP3 Mac1 (Severe acute respiratory syndrome coronavirus 2, UniProt P0DTD1)
Assay: biochemical
Assay type: binding
Details: for inhibition at 125 µM: read-out: Inhibition at top concentration of 125 µM (%); for inhibition at 187 µM: read-out: Inhibition at top screening concentration of 187 µM; for inhibitory activity in FDA-approved library screen: primary screen at the set screening concentration
[1] = MIDAS hit compounds and analogues, 125 µM
[2] = MIDAS hit compounds and analogues, top concentration 125 µM, 8-point 1:1 dilution, duplicate
[3] = MIDAS compound library primary screen
[4] = MIDAS hit compounds and analogues, top concentration 125 µM, 8-point 1:1 dilution, duplicate, read-out: IC50
[5] = BioAscent hit compounds, confirmatory IC50 curves
[6] = BioAscent hit compounds, top concentration 187 µM, 8-point 1:1 dilution, duplicate, read-out: IC50
[7] = BioAscent virtual screening hit compounds, duplicate
[8] = FDA-approved compound library primary screen, 50 µM, single shot

SMILES: CC(C)n1ncc2c(C(=O)N3CCNC(=O)C3)cc(-c3ccccc3)nc21 [IAL-MD0123, CC(C)N1N=CC=2C(=CC(=NC12)C=3C=CC=CC3)C(=O)N4CCNC(=O)C4]
- inhibition at 125 µM [1]: 1.8%
- IC50 in µM [2]: Not measurable

SMILES: Cc1ccc(Cn2ncc3c(C(=O)N4CCNC(=O)C4)cc(C)nc32)cc1 [IAL-MD0124, CC=1C=CC(CN2N=CC=3C(=CC(C)=NC23)C(=O)N4CCNC(=O)C4)=CC1]
- Inhibition at top concentration of 125 µM (%) [1]: Not measurable
- IC50 in µM [2]: Not measurable

SMILES: CCOc1ccc2c(C)c(C(=O)N[C@@H]3CCNC[C@H]3O)oc2c1OCC [IAL-MD0127, O=C(C(O1)=C(C)C2=C1C(OCC)=C(OCC)C=C2)N[C@H]3[C@H](O)CNCC3.[H]Cl]
- inhibition at 25 µM [3]: 40%
- IC50 [4]: 38 µM
- inhibition at 125 µM: 66.5%

SMILES: Cn1ccc2c(-c3ccc(C(=O)N4CCCCC4)cn3)ccnc21 [IAL-MD0128, O=C(C1=CN=C(C2=C3C(N(C)C=C3)=NC=C2)C=C1)N4CCCCC4]
- inhibition at 25 µM [3]: 58%
- Inhibition at top concentration of 125 µM (%) [1]: Not measurable due to compound precipitation
- IC50 [4]: ~3.1 µM and 3.1 µM
- assay effects in dose-response titration (MIDAS hits and analogues, higher compound concentrations): assay interference effects at higher compound concentrations

SMILES: CN1CCC(Cn2ccnc2-c2ccc(-c3ccccc3C#N)o2)C1 (stereo not shown) [IAL-MD0129, N#CC1=CC=CC=C1C2=CC=C(C3=NC=CN3CC4CN(C)CC4)O2]
- inhibition at 25 µM [3]: 55%
- Inhibition at top concentration of 125 µM (%) [1]: Not measurable due to compound precipitation
- IC50 [4]: 14.2 µM

SMILES: CC(C)NC(=O)c1ccc(-c2ccnc3c2ccn3C)o1 [IAL-MD0130, O=C(NC(C)C)C1=CC=C(C2=C3C(N(C)C=C3)=NC=C2)O1]
- Inhibition at top concentration of 125 µM (%) [1]: Not measurable due to compound precipitation
- IC50 [4]: 7.6 µM

SMILES: Cn1ccc2c(-c3ccc(C(=O)N4CCOCC4)o3)ccnc21 [IAL-MD0131, O=C(C1=CC=C(C2=C3C(N(C)C=C3)=NC=C2)O1)N4CCOCC4]
- Inhibition at top concentration of 125 µM (%) [1]: Not measurable due to compound precipitation
- IC50 [4]: 4.9 µM

SMILES: Cn1ccc2c(-c3ccc(C(=O)NC4CC4)o3)ccnc21 [IAL-MD0132, O=C(NC1CC1)C2=CC=C(C3=C4C(N(C)C=C4)=NC=C3)O2]
- Inhibition at top concentration of 125 µM (%) [1]: Not measurable due to compound precipitation
- IC50 [4]: 7.2 µM

SMILES: CN(C)C(=O)c1ccc(-c2ccnc3c2ccn3C)o1 [IAL-MD0133, O=C(N(C)C)C1=CC=C(C2=C3C(N(C)C=C3)=NC=C2)O1]
- Inhibition at top concentration of 125 µM (%) [1]: Not measurable due to compound precipitation
- IC50 [4]: 8.5 µM

SMILES: CCCCNC(=O)c1ccc(-c2cc(N)nc3[nH]ccc23)o1 [IAL-MD0134, O=C(NCCCC)C1=CC=C(C2=C3C(NC=C3)=NC(N)=C2)O1]
- inhibition at 125 µM [1]: 77.8%
- IC50 [4]: 25 µM and 25.3 µM

SMILES: CN(C)C(=O)c1cncc(-c2ccnc3c2ccn3C)n1 [IAL-MD0135, O=C(C1=NC(C2=C3C(N(C)C=C3)=NC=C2)=CN=C1)N(C)C]
- inhibition at 125 µM [1]: 18.3%
- IC50 in µM [2]: Not measurable

SMILES: Cn1ccc2c(-c3ncccc3C(N)=O)ccnc21 [IAL-MD0136, O=C(N)C1=C(C2=C3C(N(C)C=C3)=NC=C2)N=CC=C1]
- inhibition at 125 µM [1]: 49.7%
- IC50 in µM [2]: Not measurable

SMILES: Cn1ccc2c(-c3cncc(C(=O)N4CCCCC4)n3)ccnc21 [IAL-MD0137, O=C(C1=CN=CC(C2=C3C(N(C)C=C3)=NC=C2)=N1)N4CCCCC4]
- inhibition at 125 µM [1]: 25.8%
- IC50 in µM [2]: Not measurable

SMILES: Cn1ccc2c(-c3ncccc3C(=O)N3CCCCC3)ccnc21 [IAL-MD0138, O=C(C1=CC=CN=C1C2=C3C(N(C)C=C3)=NC=C2)N4CCCCC4]
- inhibition at 125 µM [1]: 79.4%
- IC50 [4]: 36 µM

SMILES: Cn1ccc2c(-c3cc(C(=O)N4CCCC4)ccn3)ccnc21 [IAL-MD0139, O=C(C1=CC(C2=C3C(N(C)C=C3)=NC=C2)=NC=C1)N4CCCC4]
- inhibition at 125 µM [1]: 21.7%
- IC50 in µM [2]: Not measurable

SMILES: CN(C)C(=O)c1ccc(-c2ccnc3c2ccn3C)nc1 [IAL-MD0140, O=C(N(C)C)C1=CN=C(C2=C3C(N(C)C=C3)=NC=C2)C=C1]
- Inhibition at top concentration of 125 µM (%) [1]: Not measurable due to compound precipitation
- IC50 [4]: 6.9 µM

SMILES: CN(C)C1CCN(C(=O)c2ccc(-c3ncnc4[nH]ccc34)cc2)C1 (stereo not shown) [IAL-MD0141, O=C(N1CC(N(C)C)CC1)C2=CC=C(C3=C4C(NC=C4)=NC=N3)C=C2.O=CO]
- inhibition at 125 µM [1]: 81.3%
- IC50 [4]: 25.2 µM

SMILES: Cn1ccc2c(-c3ccc(C(=O)N4CCCC4)cn3)ccnc21 [IAL-MD0142, O=C(C1=CN=C(C2=C3C(N(C)C=C3)=NC=C2)C=C1)N4CCCC4]
- inhibition at 125 µM [1]: 37.9%
- IC50 in µM [2]: Not measurable

SMILES: CC(=O)N1CCN(C(=O)c2ccc(-c3ncnc4[nH]ccc34)cc2)CC1 [IAL-MD0143, O=C(C1=CC=C(C2=C3C(NC=C3)=NC=N2)C=C1)N4CCN(C(C)=O)CC4]
- inhibition at 125 µM [1]: 71.9%
- IC50 [4]: 45 µM

SMILES: CCN(C)C(=O)c1ccc(-c2ccnc3c2ccn3C)nc1 [IAL-MD0144, O=C(N(CC)C)C1=CN=C(C2=C3C(N(C)C=C3)=NC=C2)C=C1]
- inhibition at 125 µM [1]: 23.8%
- IC50 in µM [2]: Not measurable

SMILES: Cn1ccc2c(-c3ccc(Cn4ccnc4)cn3)ccnc21 [IAL-MD0145, CN1C=CC2=C(C3=NC=C(CN4C=CN=C4)C=C3)C=CN=C21]
- inhibition at 125 µM [1]: 81.1%
- IC50 [4]: 14 µM

SMILES: CN1CCN(C(=O)c2cncc(-c3ccnc4c3ccn4C)n2)CC1 [IAL-MD0146, O=C(C1=CN=CC(C2=C3C(N(C)C=C3)=NC=C2)=N1)N4CCN(C)CC4]
- inhibition at 125 µM [1]: 3.7%
- IC50 in µM [2]: Not measurable

SMILES: CCNC(=O)c1ccc(-c2ccnc3c2ccn3C)o1 [IAL-MD0147, O=C(NCC)C1=CC=C(C2=C3C(N(C)C=C3)=NC=C2)O1]
- Inhibition at top concentration of 125 µM (%) [1]: Not measurable due to compound precipitation
- IC50 [4]: 6.8 µM

SMILES: CCCNC(=O)c1ccc(-c2ccnc3c2ccn3C)o1 [IAL-MD0148, O=C(NCCC)C1=CC=C(C2=C3C(N(C)C=C3)=NC=C2)O1]
- Inhibition at top concentration of 125 µM (%) [1]: Not measurable due to compound precipitation
- IC50 [4]: 7.7 µM

SMILES: CC(=O)c1ccc(-c2ccc(N)cc2)s1 [IAL-MD0305, CC(=O)c1ccc(-c2ccc(N)cc2)s1]
- inhibition at 187 µM (BioAscent hit compounds): 63.1%
- Hill slope [5]: 0.6
- IC50 [6]: 28 µM
- inhibition at 25 µM [7]: 56.2%

SMILES: COc1cc2c(cc1/C=C/C(=O)O)OC(C)C2 (stereo not shown) [IAL-MD0306, COc1cc2c(cc1/C=C/C(=O)O)OC(C)C2]
- inhibition at 187 µM (BioAscent hit compounds): 81.3%
- Hill slope [5]: 0.8
- IC50 [6]: 18 µM
- inhibition at 25 µM [7]: 63.7%

SMILES: C=C1c2cccc(O)c2C(=O)C2=C(O)[C@]3(O)C(=O)C(C(N)=O)=C(O)[C@@H](N(C)C)[C@@H]3[C@@H](O)[C@H]12 [Methacycline hydrochloride, reference compound]
- NSP3 Mac1 inhibition at 50 µM (%) [8]: 87%
- inhibition at 50 µM [8]: 86.8%
- outcome of dose-response titration (FDA-approved hit compounds, top concentration 125 µM): strong assay interference

SMILES: O=C1c2c(O)ccc(O)c2C(=O)c2c(NCCNCCO)ccc(NCCNCCO)c21 [Mitoxantrone hydrochloride, reference compound]
- IC50 (FDA-approved hit compounds re-supplied, top concentration 125 µM, read-out: IC50): 14.1 µM and ~14 µM

SMILES: NC(=O)c1ccc[n+]([C@@H]2O[C@H](COP(=O)([O-])OP(=O)(O)OC[C@H]3O[C@@H](n4cnc5c(N)ncnc54)[C@H](O)[C@@H]3O)[C@@H](O)[C@H]2O)c1 [Nadide, reference compound]
- NSP3 Mac1 inhibition at 50 µM (%) [8]: 100%
- inhibition at 50 µM [8]: 99.9%

SMILES: CN1CCCN=C1/C=C/c1cccc(O)c1 [Oxantel pamoate, reference compound]
- IC50: 11.7 µM and 12 µM
- NSP3 Mac1 inhibition at 50 µM (%) [8]: 56%
- inhibition at 50 µM [8]: 55.9%
- Hill slope (FDA-approved hit compounds, confirmatory HTRF assays): 1.34

SMILES: CC(=O)[O][Hg][c]1ccccc1 [Phenylmercuric acetate, reference compound]
- NSP3 Mac1 inhibition at 50 µM (%): 58.1%

SMILES: C=CC1=C(C)c2cc3[nH]c(cc4nc(cc5[nH]c(cc1n2)c(C)c5CCC(=O)O)C(CCC(=O)O)=C4C)c(C)c3C=C [Protoporphyrin IX, reference compound]
- inhibition at 50 µM [8]: 75%

SMILES: O=C(O)c1cc(O)c2c(c1)[C@H]([C@H]1c3cc(C(=O)O)cc(O)c3C(=O)c3c(O[C@@H]4O[C@H](CO)[C@@H](O)[C@H](O)[C@H]4O)cccc31)c1cccc(O[C@@H]3O[C@H](CO)[C@@H](O)[C@H](O)[C@H]3O)c1C2=O [Sennoside A, reference compound]
- NSP3 Mac1 inhibition at 50 µM (%) [8]: 112%
- inhibition at 50 µM [8]: 112%

SMILES: Nc1ccc(S(=O)(=O)[O-])cc1.Nc1ccc(S(=O)(=O)[O-])cc1.O.O.O.O.[Zn+2] [Sulfanilate zinc, reference compound]
- NSP3 Mac1 inhibition at 50 µM (%) [8]: 44.2%

SMILES: Cc1ccc(C(=O)Nc2ccc(S(=O)(=O)O)c3cc(S(=O)(=O)O)cc(S(=O)(=O)O)c23)cc1NC(=O)c1cccc(NC(=O)Nc2cccc(C(=O)Nc3cc(C(=O)Nc4ccc(S(=O)(=O)O)c5cc(S(=O)(=O)O)cc(S(=O)(=O)O)c45)ccc3C)c2)c1 [Suramin hexasodium, reference compound]
- inhibition at 50 µM [8]: 55.8%
- inhibitory activity in FDA-approved library screen: confirm the inhibitory activity

SMILES: C=CCCCCCCCCC(=O)[O-].C=CCCCCCCCCC(=O)[O-].[Zn+2] [Zinc undecylenate, reference compound]
- NSP3 Mac1 inhibition at 50 µM (%) [8]: 68.0%

SMILES: Nc1ncnc2[nH]cnc12 [adenine, reference compound]
- inhibitory activity in FDA-approved library screen: did not show any inhibitory activity

SMILES: N[C@@H](C(=O)N[C@@H]1C(=O)N2C(C(=O)O)=C(Cl)CS[C@H]12)c1ccccc1 [cefaclor, reference compound]
- inhibitory activity in FDA-approved library screen: could yet not measure any inhibitory activity

SMILES: NNc1nncc2ccccc12 [hydralazine, reference compound]
- inhibitory activity in FDA-approved library screen: no NSP3 Mac1 inhibition

SMILES: O=C(O)CCc1nc(-c2ccccc2)c(-c2ccccc2)o1 [oxaprozin, reference compound]
- inhibitory activity in FDA-approved library screen: could not be identified in our screen
